Reference: patent US4696929A, “Derivative of piperazine having anti-allergic and anti-inflammatory action” (Taiho Pharmaceutical Company, Limited, priority 1984, dated 1987)

Tests used:
[1] = target: T1, 5-lipoxygenase (Cavia porcellus, UniProt A0A286X958); test: Assay of 5-lipoxygenase (PMNL cytosol fraction, 5-HETE formation); type: biochemical, guinea pig (male Hartley strain); conditions: 3 min pre-incubation, then [1-14C]arachidonic acid 5 min, 37° C., 1% DMSO, 5-HETE counted
T1 construct: 105,000×g for 60 min to obtain the cytosol fraction; endogenous in cells; host or cells: casein-elicited peritoneal polymorphonuclear leukocytes of male Hartley guinea pigs, 105,000×g cytosol fraction
T1 sequence (A0A286X958 1-674): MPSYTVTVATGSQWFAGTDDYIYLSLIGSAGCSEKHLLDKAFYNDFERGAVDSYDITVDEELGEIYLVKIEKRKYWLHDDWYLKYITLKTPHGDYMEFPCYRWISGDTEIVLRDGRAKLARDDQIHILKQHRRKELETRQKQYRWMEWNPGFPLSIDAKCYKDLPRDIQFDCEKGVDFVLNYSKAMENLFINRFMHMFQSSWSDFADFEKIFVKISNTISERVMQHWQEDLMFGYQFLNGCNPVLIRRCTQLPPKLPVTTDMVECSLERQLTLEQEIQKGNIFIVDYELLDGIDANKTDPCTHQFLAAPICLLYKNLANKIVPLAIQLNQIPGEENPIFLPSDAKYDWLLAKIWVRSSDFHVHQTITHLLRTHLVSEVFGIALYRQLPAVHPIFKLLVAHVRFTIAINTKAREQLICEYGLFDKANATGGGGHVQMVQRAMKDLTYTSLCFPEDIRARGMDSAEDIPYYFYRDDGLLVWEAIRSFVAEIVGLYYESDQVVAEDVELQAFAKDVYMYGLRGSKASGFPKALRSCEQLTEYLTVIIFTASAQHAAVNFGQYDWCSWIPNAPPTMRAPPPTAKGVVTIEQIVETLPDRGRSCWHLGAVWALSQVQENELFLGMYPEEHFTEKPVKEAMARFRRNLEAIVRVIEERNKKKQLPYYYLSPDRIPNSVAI
Experimental: Assay of 5-lipoxygenase […] Male Hartley strain guinea pigs weighing 580~740 g received intraperitoneal injection of 2% casein in saline (5 ml/100 g body weight). After 16~18 hr, the guinea pigs were sacrificed by bleeding from the carotid artery. Then 50 ml of Dulbecco's phosphate-buffered saline (PBS(-)) containing 5 units/ml of heparin were injected into the peritoneal cavity and peritoneal exudate was collected. The exudate was combined and filtered through 4 layers of cheese cloth, followed by centrifugation at 1,000 rpm for 10 min. Cell pellets were suspended in small amounts of PBS(-) and treated 3 volumes of 0.2% NaCl to lyse contamination red blood cells. The cells (80% or more PMNL as identified by Wright-Giemsa stain) were washed twice with buffer A (130 mM NaCl, 25 mM phosphate, pH 7.4, 1 mM EDTA). The washed cells (1×10^8 cells/ml) were resuspended in 50 mM phosphate (pH 7.4) containing 1 mM EDTA and 0.1% gelatin, sonicated and centrifuged at 10,000×g for 20 min. The supernatant solution was further centrifuged at 105,000×g for 60 min to obtain the cytosol fraction. Enzyme assays Test compounds were dissolved in dimethyl sulfoxide (DMSO), and the final concentration of DMSO was kept at 1% in each experiment. […] Each reaction was terminated by precipitating the proteins with 1 ml acetone and added 0.5 ml ice-cold saline. The pH was adjusted to about 3 with 150 μl 2N formic acid. The mixture was extracted twice with 2 ml chloroform. […] Radioactive zone of 5-HETE [5(S)-hydroxy-6,8,11,14-eicosatetraenoic acid] was detected by autoradiography, scraped from the TLC plates, and counted by a liquid scintillation counter. IC50 (50% Inhibition Concentration) value indicates the concentration to decrease the enzymatic product by 50% as compared to that of vehicle-treated control.

[2] = target: T2, platelet cyclooxygenase (Oryctolagus cuniculus, UniProt O97554); test: Assay of platelet cyclooxygenase (intact washed platelets, TXB2 formation); type: cell-based, rabbit (male New Zealand White); conditions: 3 min pre-incubation, then [1-14C]arachidonic acid 5 min, 37° C., TXB2 counted
T2 construct: 1 ml of intact washed platelet suspensions were pre-incubated with test compounds; endogenous in cells; host or cells: intact washed platelets of male New Zealand White rabbits
T2 sequence (O97554 31-606): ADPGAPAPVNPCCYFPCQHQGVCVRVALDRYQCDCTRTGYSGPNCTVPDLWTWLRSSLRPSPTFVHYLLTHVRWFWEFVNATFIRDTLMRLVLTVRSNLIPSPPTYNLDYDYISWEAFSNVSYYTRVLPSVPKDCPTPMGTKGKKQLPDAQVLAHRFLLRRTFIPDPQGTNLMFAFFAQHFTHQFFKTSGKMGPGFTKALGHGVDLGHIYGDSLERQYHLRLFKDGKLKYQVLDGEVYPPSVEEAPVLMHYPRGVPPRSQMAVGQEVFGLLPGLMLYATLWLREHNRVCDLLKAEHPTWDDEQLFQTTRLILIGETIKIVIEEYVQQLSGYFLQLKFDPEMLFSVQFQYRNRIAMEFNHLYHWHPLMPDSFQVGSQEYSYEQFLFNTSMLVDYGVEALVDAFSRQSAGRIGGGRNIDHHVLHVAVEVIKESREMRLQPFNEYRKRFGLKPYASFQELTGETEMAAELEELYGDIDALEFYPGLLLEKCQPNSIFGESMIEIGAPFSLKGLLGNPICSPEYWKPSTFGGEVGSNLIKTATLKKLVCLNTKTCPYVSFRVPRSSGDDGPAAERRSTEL
Experimental: Assay of platelet cyclooxygenase
Preparation of washed platelet
Citrated blood (blood/3.8% sodium citrate=9:1 by volume) was obtained by heart-puncture from male New Zealand White rabbits weighing 3.21~4.75 kg and centrifuged at 1,000 rpm for 10 min. The platelet-rich plasma (the supernatant layer: PRP) was further centrifuged at 3,000 rpm for 10 min, and the resulting platelet was washed twice with buffer A (130 mM NaCl, 25 mM phosphate, pH 7.4, 1 mM EDTA). The washed platelets were resuspended in 50 mM phosphate (pH 7.4) containing 1 mM EDTA and adjusted 1×10^8 platelets/ml.
For the platelet cyclooxygenase assays, 1 ml of intact washed platelet suspensions were pre-incubated with test compounds (dissolved in DMSO) in the presence of 1 mM GSH at 37° C. for 3 min, and then the mixture was incubated with [1-^14 C]arachidonic acid (0.1 μCi) at 37° C. for 5 min. Each reaction was terminated and extracted by the addition of 3 ml of ethyl acetate/methanol/1M citric acid (30:4:1, v/v). The organic layer was evaporated under a N2 gas stream, redissolved in 30 μl of chloroform/methanol (2:1, v/v), and applied 20 μl to Silica gel TLC plates, and developed in the solvent system chloroform/methanol/acetic acid/H2 O (90:8:1:0.8, v/v). Radioactive zone of TXB2 (Thromboxane B2) was detected by autoradiography, scraped from the TLC plates, and counted by a liquid scintillation counter. IC50 value indicates the concentration to decrease the enzymatic product by 50% as compared to that of vehicle-treated control.

[3] = tested on: lipoxygenase; conditions: background art; cited from earlier work
[4] = tested on: cyclooxygenase; conditions: background art; cited from earlier work

| SMILES | IC50 [1] | IC50 [2] | lipoxygenase inhibition (in words) [3] | cyclooxygenase inhibition (in words) [4] |
| --- | --- | --- | --- | --- |
| COc1ccc2c(c1)c(CC(=O)OC(C)CN1CCN(CCCO)CC1)c(C)n2C(=O)c1ccc(Cl)cc1 (stereo not shown) [Example 8, 2-{4-(3-hydroxypropyl)-1-piperazinyl}-1-methylethyl 1-(p-chlorobenzoyl)-5-methoxy-2-methyl-3-indoylacetate dimaleate] | 6.9 µM | 30.6 µM |  |  |
| CC(C(=O)O)c1ccc2oc(-c3ccc(Cl)cc3)nc2c1 (stereo not drawn) [Benoxaprofen, 2-(4-chlorophenyl)-α-methyl-5-benzoxazoleacetic acid] | 24 µM |  | lipoxygenase-inhibiting actions | cyclooxygenase-inhibiting |
| COc1ccc2c(c1)c(CC(=O)OC(C)(C)CN1CCN(CCCOC3CCCCO3)CC1)c(C)n2C(=O)c1ccc(Cl)cc1 (stereo not shown) [Example 13, 1-methyl-2-[4-{3-(2-tetrahydropyranyloxy)propyl}-1-piperazinyl]-2-methyl-2-propyl 1-(p-chlorobenzoyl)-5-methoxy-2-methyl-3-indoylacetate] | 4.7 µM | 22.3 µM |  |  |
| COc1ccc2c(c1)c(CC(=O)OC(C)CN1CCN(CCCCCO)CC1)c(C)n2C(=O)c1ccc(Cl)cc1 (stereo not shown) [Example 10, 2-{4-(5-hydroxypentyl)-1-piperazinyl}-1-methylethyl 1-(p-chlorobenzoyl)-5-methoxy-2-methyl-3-indoylacetate dimaleate] | 6.2 µM | 22.8 µM |  |  |
| COc1ccc2c(c1)c(CC(=O)O)c(C)n2C(=O)c1ccc(Cl)cc1 [Indomethacin] | 242 µM |  | does not inhibit lipoxygenase reaction | has cyclooxygenase-inhibiting action |

More lines, in order of falling IC50 [1], values ahead:

| IC50 [1] | IC50 [2] | SMILES | lipoxygenase inhibition (in words) [3] | cyclooxygenase inhibition (in words) [4] |
| --- | --- | --- | --- | --- |
| 4.7 µM | 41.2 µM | COc1ccc2c(c1)c(CC(=O)OC(C)CN1CCN(CCCCCCO)CC1)c(C)n2C(=O)c1ccc(Cl)cc1 (stereo not shown) [Example 11, 2-{4-(6-hydroxyhexyl)-1-piperazinyl}-1-methylethyl 1-(p-chlorobenzoyl)-5-methoxy-2-methyl-3-indoylacetate dimaleate] |  |  |
| 1.7 µM | 9.2 µM | COc1ccc2c(c1)c(CC(=O)OC(CN1CCN(CCO)CC1)c1ccccc1)c(C)n2C(=O)c1ccc(Cl)cc1 (stereo not shown) [Example 9, 2-{4-(2-hydroxyethyl)-1-piperazinyl}-1-phenylethyl 1-(p-chlorobenzoyl)-5-methoxy-2-methyl-3-indoylacetate dimaleate] |  |  |
| 1.6 µM | 20.4 µM | COc1ccc2c(c1)c(CC(=O)OC(CN1CCN(CCCO)CC1)c1ccccc1)c(C)n2C(=O)c1ccc(Cl)cc1 (stereo not shown) [Example 7, 2-{4-(3-hydroxypropyl)-1-piperazinyl}-1-phenylethyl 1-(p-clorobenzoyl)-5-methoxy-2-methyl-3-indoylacetate dimaleate] |  |  |
| 0.9 µM |  | COc1ccc2c(c1)c(CC(=O)OC(CN1CCN(CCCCCCCCCCO)CC1)c1ccccc1)c(C)n2C(=O)c1ccc(Cl)cc1 (stereo not shown) [Example 12, 2-{4-(10-hydroxydecyl)-1-piperazinyl}-1-phenylethyl 1-(p-chlorobenzoyl)-5-methoxy-2-methyl-3-indoylacetate dimaleate] |  |  |
